Measured values taken from ChEMBL document CHEMBL4219272, “Synthesis and biological evaluation of curcumin derivatives modified with α-amino boronic acid as proteasome inhibitors” (Bioorg Med Chem Lett, 2018).

Columns and labels:
[1] = Aqueous solubility of the compound; assay type: physicochemical; details: buffer
HCT-116 [2] = experiment: Antiproliferative activity against human HCT116 cells after 72 hrs by MTT assay; assay type: functional, cell-based; details: HCT-116, 72 h
MDA-MB-231 = experiment: Antiproliferative activity against human MDA-MB-231 cells after 72 hrs by MTT assay; assay type: functional, cell-based; details: MDA-MB-231, 72 h
[3] = Antiproliferative activity against human 95-D cells after 72 hrs by MTT assay; assay type: functional, cell-based
A549 = experiment: Antiproliferative activity against human A549 cells after 72 hrs by MTT assay; assay type: functional, cell-based; details: A549, 72 h
[4] = target: T1, Proteasome Macropain subunit MB1 (Homo sapiens, UniProt P28074); experiment: Inhibition of chymotrypsin-like activity of 20S proteasome in human K562 cells using Suc-LLVYaminoluciferin as substrate after 2 hrs by luminescence assay; assay type: cell-based
T1 sequence (P28074 whole entry): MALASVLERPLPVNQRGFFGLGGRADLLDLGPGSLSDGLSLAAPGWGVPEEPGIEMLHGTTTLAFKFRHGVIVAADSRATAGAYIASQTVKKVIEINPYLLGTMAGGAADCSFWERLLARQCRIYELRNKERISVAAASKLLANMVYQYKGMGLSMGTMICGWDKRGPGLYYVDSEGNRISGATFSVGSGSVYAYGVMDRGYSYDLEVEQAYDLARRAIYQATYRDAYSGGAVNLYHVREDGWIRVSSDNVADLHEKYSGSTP

LNCaP = experiment: Growth inhibition of human LNCAP cells at 5 to 10 uM after 48 hrs by MTT assay relative to control; assay type: functional
[5] = target: T1, Proteasome Macropain subunit MB1; experiment: Inhibition of chymotrypsin-like activity of 20S proteasome in human PC3 cell extract using Suc-LLVYaminoluciferin as substrate after 2 hrs
[6] = target: T1, Proteasome Macropain subunit MB1; experiment: Inhibition of chymotrypsin-like activity of 20S proteasome in human LNCAP cell extract using Suc-LLVYaminoluciferin as substrate after 2 hrs
HCT-116 [7] = experiment: Antiproliferative activity against human HCT116 cells after 36 hrs by XTT assay; assay type: functional, cell-based; details: HCT-116, 36 h

IC50 (HCT-116 [2]) [nM] | SMILES | further results
 | O=C1/C(=C/c2ccc([N+](=O)[O-])cc2)CNC/C1=C\c1ccc([N+](=O)[O-])cc1 | solubility [1]: Insoluble
 | O=C1/C(=C/c2ccc(F)cc2)CNC/C1=C\c1ccc(F)cc1 | solubility [1]: Soluble
785 | CCC[C@H](NC(=O)N1C/C(=C\c2ccc(F)cc2)C(=O)/C(=C/c2ccc(F)cc2)C1)B1OC(C)(C)C(C)(C)O1 | 
824 to 854 | CC(C)C[C@H](NC(=O)N1C/C(=C\c2ccc(F)cc2)C(=O)/C(=C/c2ccc(F)cc2)C1)B1OC(C)(C)C(C)(C)O1 | IC50 (MDA-MB-231): 3310 nM; IC50 [3]: 1120 nM; IC50 (A549): 5050 nM
1040 | CC1(C)OB([C@H](CCc2ccccc2)NC(=O)N2C/C(=C\c3ccc(F)cc3)C(=O)/C(=C/c3ccc(F)cc3)C2)OC1(C)C | 
1630 | CC(C)C[C@H](NC(=O)N1CCN(C(=O)N2C/C(=C\c3ccc(F)cc3)C(=O)/C(=C/c3ccc(F)cc3)C2)CC1)B1OC(C)(C)C(C)(C)O1 | 
903 | CC1(C)OB([C@@H](NC(=O)N2C/C(=C\c3ccc(F)cc3)C(=O)/C(=C/c3ccc(F)cc3)C2)C2CCCCC2)OC1(C)C | 
534 | CC(C)C[C@H](NC(=O)[C@@H](NC(=O)N1C/C(=C\c2ccc(F)cc2)C(=O)/C(=C/c2ccc(F)cc2)C1)C(C)C)B1OC(C)(C)C(C)(C)O1 | 
201 | CC(C)C[C@H](NC(=O)[C@H](Cc1ccccc1)NC(=O)N1C/C(=C\c2ccc(F)cc2)C(=O)/C(=C/c2ccc(F)cc2)C1)B1OC(C)(C)C(C)(C)O1 | 
172 | CC(C)C[C@H](NC(=O)[C@H](Cc1ccc2ccccc2c1)NC(=O)N1C/C(=C\c2ccc(F)cc2)C(=O)/C(=C/c2ccc(F)cc2)C1)B1OC(C)(C)C(C)(C)O1 | 
639 | CC(C)C[C@H](NC(=O)[C@H](CC(C)C)NC(=O)N1C/C(=C\c2ccc(F)cc2)C(=O)/C(=C/c2ccc(F)cc2)C1)B1OC(C)(C)C(C)(C)O1 | 
375 | CC(C)C[C@H](NC(=O)CNC(=O)N1C/C(=C\c2ccc(F)cc2)C(=O)/C(=C/c2ccc(F)cc2)C1)B1OC(C)(C)C(C)(C)O1 | 
599 | CC1(C)OB([C@H](Cc2ccccc2)NC(=O)N2C/C(=C\c3ccc(F)cc3)C(=O)/C(=C/c3ccc(F)cc3)C2)OC1(C)C | 
828 | CC(C)(C)[C@H](NC(=O)N1C/C(=C\c2ccc(F)cc2)C(=O)/C(=C/c2ccc(F)cc2)C1)B1OC(C)(C)C(C)(C)O1 | 
876 | CC[C@H](NC(=O)N1C/C(=C\c2ccc(F)cc2)C(=O)/C(=C/c2ccc(F)cc2)C1)B1OC(C)(C)C(C)(C)O1 | 
203 | CC(C)C[C@H](NC(=O)[C@H](Cc1ccccc1)NC(=O)N1C/C(=C\c2ccc(F)cc2)C(=O)/C(=C/c2ccc(F)cc2)C1)B(O)O | IC50 [4]: 835 nM
908 | CC(C)[C@H](NC(=O)N1C/C(=C\c2ccc(F)cc2)C(=O)/C(=C/c2ccc(F)cc2)C1)B1OC(C)(C)C(C)(C)O1 | 
 | COc1cc(/C=C/C(=O)CC(=O)/C=C/c2ccc(OC(=O)[C@@H](N)C(C)C)c(OC)c2)ccc1OC(=O)[C@@H](N)C(C)C | growth inhibition (GI) (LNCaP): 38 - 71%; IC50 [4]: > 5000 nM; IC50 [5]: 10000 nM; IC50 [6]: 10000 nM
10900 | COc1cc(/C=C/C(=O)CC(=O)/C=C/c2ccc(O)c(OC)c2)ccc1O [CURCUMIN] | IC50 (MDA-MB-231): > 10000 nM; IC50 [3]: > 10000 nM; IC50 (HCT-116 [7]): 50000 nM; IC50 (A549): > 10000 nM
